Reference: PMC5444695, “CM363, a novel naphthoquinone derivative which acts as multikinase modulator and overcomes imatinib resistance in chronic myelogenous leukemia” (Oncotarget, 2016)

What was measured:
PMBC = assay: MTT cell viability assay, PMBC; assay type: cell-based; settings: Homo sapiens, 48 h, read-out: IC50 (μM) Mean ± SD
Description: (§1) All cell lines were purchased from the American Type Culture Collection (ATCC). The cell lines were growth at 37°C under 5% CO2 under humidified atmosphere. The cell lines K562 (derived from patients during the blast crisis phase of CML and IM sensitive), K562-R (IM resistance human CML), KmycBT15I (KBTI; IM resistant human CML, expressing the Bcr-Abl […] mutant), HEL (human erythroleukemia), HL60 (human acute myeloid leukemia), MOLM-13 (human acute myeloid leukemia), MV4.11 (human acute monocytic leukemia), HCT-15 (human colorectal adenocarcinoma), PC3 (human prostate cancer), MCF7 (human breast cancer), NCTC3749 (mouse lymphoma) as well as the MRC.5 cells (non-malignant human lung fibroblasts) were maintained in RPMI-1640 medium. The cell lines L1210 (mouse lymphocytic leukemia cells), Raw (mouse macrophage), HeLa (human epithelial cervix cancer), U-2 OS (human osteosarcoma), MG63 (human osteosarcoma) and T47D (human breast cancer adenocarcinoma) were maintained in DMEM. HEK293 cells stably expressing the GH receptor (HEKGHR) were maintained in DMEM-F12 medium. […]
(§2) Cells were seeded in 96-well plates (BD Falcon, France) at exponential growth density (5000–20000 cells/well) and treated with vehicle (0.05% DMSO) or compound (0.01 to 10 μM) for 48–72 h. […] Optical density was measured at 595 nm with the iMark Microplate Reader (BioRad, CA, USA).

MOLM.13 cells = assay: MTT cell viability assay, MOLM.13 cells; assay type: cell-based; settings: Homo sapiens, MOLM.13, 48 h, read-out: IC50 (μM) Mean ± SD
Description: as §1, §2

HL60 cells = assay: MTT cell viability assay, HL60 cells; assay type: cell-based; settings: Homo sapiens, HL-60, HL60, 48 h, read-out: IC50 (μM) Mean ± SD
Description: as §1, §2

Stat3 response element = assay: Stat3 luciferase reporter gene assay in HeLa/Stat3-luc cells; assay type: cell-based; settings: 1 h pretreatment then IL6 7 h
Raw cells = assay: MTT cell viability assay, Raw cells; assay type: cell-based; settings: Mus musculus, 48 h, read-out: IC50 (μM) Mean ± SD
Description: as §1, §2

PC3 cells = assay: MTT cell viability assay, PC3 cells; assay type: cell-based; settings: Homo sapiens, PC-3, PC3, 48 h, read-out: IC50 (μM) Mean ± SD
Description: as §1, §2

[1] = Body weight of xenografted mice; assay type: in vivo; settings: CM363 10 mg/kg i.p., 25 days
Description: Six weeks old female athymic mice (NOD-SCID), were purchased from Charles River River (Barcelona, Spain), and were housed in a specifically designed pathogen-free isolation facility as reported previously. The mice were subcutaneously inoculated into the right flank with 2.5 × l0^6 K562 cells in 100 μL of RPMI-1640 medium and 100 μL of Matrigel. When tumors became palpable, mice were randomized into three groups (n = 8 per group); the control group (receiving vehicle alone- DMSO: PEG-400: sterile water at 5:25:70 (w/v)), the group receiving CM363 10 mg/Kg or the group receiving the positive control IM 40 mg/kg. The vehicle and CM363 treatments were administered via intraperitoneal injection (i.p.) every day except Saturday and Sunday. While IM was administered orally using the same schedule. The study was conducted over a 25 days period. Caliper measurements of the tumor diameters were performed twice per week, and the tumor volume was estimated as the volume of an ellipse using the following formula: V = 4/3n × (a/2) × (b/2)^2, where a and b correspond to the longest and shortest diameter, respectively. Mice were sacrificed when their tumor diameters reached 2 cm, or when they became moribund. Differences in tumor volumes between control and treated group were evaluated using the Mann-Whitney test.

N#Cc1ccc(C2C3=C(CCCC3=O)OC3=C2C(=O)c2ccccc2C3=O)cc1 (stereo not shown) [CM363, 4-(1,6,11-trioxo-2,3,4,6,11,12-hexahydro-1H-benzo[b]xanthen-12-yl)benzonitrile]
IC50 (PMBC): > 5 µM | IC50 (MOLM.13 cells): 0.7 ± 1.1 µM | IC50 (HL60 cells): 1.3 ± 0.6 µM | Stat3-dependent reporter gene (luciferase) activity (Stat3 response element): inhibit | IC50 (Raw cells): 0.1 ± 0.2 µM | IC50 (PC3 cells): 1.5 ± 1 µM | body weight [1]: no significant body weight reduction
